Assay results published in article PMC2680961, “Homologous desensitization of signalling by the alpha (α) isoform of the human thromboxane A2 receptor: A specific role for nitric oxide signalling” (Biochimica et Biophysica Acta, 2007).
Numbering of substitutions follows the chain as printed.

Columns and labels:
TPα^S145A = molecular target: T1, TPα^S145A (Homo sapiens, UniProt P21731, S145A); experiment: Intracellular calcium mobilization, HEK.TPα^S145A cells; type: cell-based; conditions: for Δ[Ca2+]i, U46619-induced: HEK.TPα^S145A
T1 construct: expressed in transfected cells
T1 sequence (P21731 1-343 S145A): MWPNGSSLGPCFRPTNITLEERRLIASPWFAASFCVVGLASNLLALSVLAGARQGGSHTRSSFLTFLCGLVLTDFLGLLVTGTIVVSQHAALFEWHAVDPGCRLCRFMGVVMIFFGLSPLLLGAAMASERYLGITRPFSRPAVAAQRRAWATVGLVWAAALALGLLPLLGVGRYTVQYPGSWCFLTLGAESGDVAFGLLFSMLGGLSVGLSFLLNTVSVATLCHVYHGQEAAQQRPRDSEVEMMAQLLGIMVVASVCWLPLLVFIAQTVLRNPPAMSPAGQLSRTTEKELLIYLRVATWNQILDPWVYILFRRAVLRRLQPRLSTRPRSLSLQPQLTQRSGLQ
Method: Measurement of intracellular calcium mobilization ([Ca^2+]i) in FURA2/AM preloaded HEK 293 cell lines (2 × 10^6 cells/dish), each transiently co-transfected with pADVA (10 μg), and pCMV:Gαq (25 μg), was carried out as previously described. To investigate the effect of GRK2/βARK1 on TP-mediated [Ca^2+]i mobilization, HEK.TPα or HEK.TPβ cells (2 × 10^6 cells/dish) were co-transfected with pADVA (10 μg), pCMV:Gαq (25 μg) along with pRK5:βARK1^495–689 (25 μg), encoding a dominant negative form of GRK2/βARK1[39]. Approximately 48 h post-transfection, cells were harvested by scraping, washed twice in ice-cold PBS and resuspended in HBSSHB (modified Ca^2+/Mg^2+-free Hank's buffered salt solution, containing […], pH 7.67, 0.1% bovine serum albumin (BSA)) buffer at 10^7 cells/ml and incubated in the dark with 5 μM FURA2/AM for 45 min at 37 °C. […] For each measurement of [Ca^2+]i mobilization, aliquots of cells were diluted to 0.825 × 10^6 cells/ml in HBSSHB, 1 mM CaCl2 and FURA2 fluorescence was recorded (2 ml aliquots of cells) at 37^ °C with gentle stirring with a Perkin Elmer-Cetus LS50-B spectrofluorometer at excitation wavelengths of 340 nm and 380 nm and emission wavelength of 510 nm, respectively.
Cells were stimulated with the TP agonist U46619 (1 μM) and changes in [Ca^2+]i mobilization were monitored as a function of time. To assess agonist-mediated homologous desensitization, cells (0.825 × 10^6 cells/ml; 2 ml per assay) were stimulated with 1 μM U46619 (Primary stimulation) or, as a control, with the vehicle for 4 min; thereafter, cells were collected by centrifugation (900×g, 5 min); were washed twice in 2 ml HBSSHB, 1 mM CaCl2; and finally resuspended in 2 ml HBSSHB,1 mM CaCl2 and were left to recover over various time intervals (ranging from 0 to 60 min); thereafter, cells re-stimulated with 1 μM U46619 (Secondary stimulation) and changes in [Ca^2+]i mobilization were monitored as a function of time. […]

TPα^S331,T337A = molecular target: T2, TPα^S331,T337A (Homo sapiens, UniProt P21731, S331A/T337A); experiment: Agonist-mediated TP phosphorylation in whole cells, HEK.TPα^S331,T337A; type: cell-based; conditions: 1 μM U46619 10 min
T2 construct: expressed in transfected cells
T2 sequence (P21731 1-343 S331A/T337A): T1 sequence (P21731 1-343 S145A) with A145S, S331A, T337A
Method: Agonist-mediated TP phosphorylation in whole cells (1.8–2 × 10^6 cells/10 cm dish) was performed essentially as previously described. Briefly, cells were transiently co-transfected with pADVA (10 μg), pCMV:Gαq (25 μg) plus pcDNA:βArrestin2 (25 μg) approximately 48 h prior to labelling. Thereafter, cells were washed once in phosphate-free DMEM, 10% dialysed FBS and were metabolically labelled for 60 min in the same medium (2 ml/10 cm dish) containing 100 μCi/ml [^32P] orthophosphate (8000–9000 Ci/mmol) at 37 °C, 5% CO2. Where appropriate, the PKG kinase inhibitor KT 5823 (50 nM) or its vehicle was added during the labelling period. Thereafter, U46619 (1 μM) or an equivalent volume of vehicle (0.01% ethanol in HBS; 20 μl) were added and cells were incubated for 10 min at 37 °C, 5% CO2. Reactions were terminated by transferring the dishes to ice and aspirating the labelled medium and HA-epitope tagged TP receptors were processed and immunoprecipitated using the anti-HA 101R antibody as previously described. Electroblots were then exposed to Xomat XAR (Kodak) film to detect ^32P-labelled proteins. Thereafter, blots were subject to phosphorimage analysis, and the intensities of agonist-induced phosphorylation were expressed in arbitrary units relative to basal (vehicle-stimulated) levels. […]

## CCCCC[C@H](O)/C=C/[C@@H]1[C@@H](C/C=C\CCCC(=O)O)[C@H]2CO[C@@H]1C2 [U46619]
TPα^S145A; primary 1 μM U46619 4 min
  Δ[Ca2+]i, U46619-induced: 157 ± 3.8 nM
TPα^S145A; secondary 1 μM U46619 at 15 min
  Δ[Ca2+]i, U46619-induced: 37 ± 4.2 nM
TPα^S145A; TPα^S145A
  secondary U46619 [Ca2+]i response relative to primary response: 24%
TPα^S331,T337A
  U46619-induced phosphorylation of TPα^S331,T337A: failed to undergo significant U46619-induced phosphorylation above basal levels
